Experimental data as given in ChEMBL document CHEMBL2331252, “Facile one-pot synthesis of novel dispirooxindole-pyrrolidine derivatives and their antimicrobial and anticancer activity against A549 human lung adenocarcinoma cancer cell line” (Bioorg Med Chem Lett, 2013).
In brackets after ≈: the same amount, converted by molar mass. Activity calls are given as the source filed them. No cut-off for these calls is given here.

Columns and labels:
Proteus vulgaris [1] = assay: Antibacterial activity against Proteus vulgaris MTCC 1771 at 1 mg/disc after 24 hrs by disc diffusion method; assay type: functional
Staphylococcus aureus [2] = assay: Antibacterial activity against Staphylococcus aureus MTCC 96 at 1 mg/disc after 24 hrs by disc diffusion method; assay type: functional
A549 [3] = assay: Cytotoxicity against human A549 cells assessed as cell death at 200 ug/ml by MTT assay; assay type: functional
Staphylococcus aureus [4] = assay: Antibacterial activity against methicillin-resistant Staphylococcus aureus at 1 mg/disc after 24 hrs by disc diffusion method; assay type: functional
Shigella flexneri [5] = assay: Antibacterial activity against Shigella flexneri MTCC 1457 after 24 hrs; assay type: functional; details: MTCC 1457, 24 h
Candida albicans [6] = assay: Antifungal activity against Candida albicans MTCC 227 at 1 mg/disc after 48 hrs by disc diffusion method; assay type: functional
[7] = Antifungal activity against Malassezia pachydermatis at 1 mg/disc after 48 hrs by disc diffusion method; assay type: functional
A549 [8] = assay: Cytotoxicity against human A549 cells assessed as cell death at 50 ug/ml by MTT assay; assay type: functional
Micrococcus luteus [9] = assay: Antibacterial activity against Micrococcus luteus MTCC 106 at 1 mg/disc after 24 hrs by disc diffusion method; assay type: functional
Klebsiella pneumoniae [10] = assay: Antibacterial activity against Klebsiella pneumoniae MTCC 109 after 24 hrs; assay type: functional; details: MTCC 109, 24 h
Klebsiella aerogenes [11] = assay: Antibacterial activity against Enterobacter aerogenes MTCC 111 after 24 hrs; assay type: functional
Candida albicans [12] = assay: Antifungal activity against Candida albicans MTCC 227 after 48 to 72 hrs; assay type: functional
Micrococcus luteus [13] = assay: Antibacterial activity against Micrococcus luteus MTCC 106 after 24 hrs; assay type: functional; details: MTCC 106, 24 h
Salmonella typhimurium [14] = assay: Antibacterial activity against Salmonella typhimurium MTCC 1251 after 24 hrs; assay type: functional, Salmonella enterica subsp. enterica serovar Typhimurium
Staphylococcus aureus [15] = assay: Antibacterial activity against methicillin-resistant Staphylococcus aureus after 24 hrs; assay type: functional
Proteus vulgaris [16] = assay: Antibacterial activity against Proteus vulgaris MTCC 1771 after 24 hrs; assay type: functional
Salmonella typhimurium [17] = assay: Antibacterial activity against Salmonella typhimurium MTCC 1251 at 1 mg/disc after 24 hrs by disc diffusion method; assay type: functional, Salmonella enterica subsp. enterica serovar Typhimurium
A549 [18] = assay: Cytotoxicity against human A549 cells assessed as cell death at 100 ug/ml by MTT assay; assay type: functional
Staphylococcus aureus [19] = assay: Antibacterial activity against Staphylococcus aureus MTCC 96 after 24 hrs; assay type: functional
Klebsiella pneumoniae [20] = assay: Antibacterial activity against Klebsiella pneumoniae MTCC 109 at 1 mg/disc after 24 hrs by disc diffusion method; assay type: functional
Shigella flexneri [21] = assay: Antibacterial activity against Shigella flexneri MTCC 1457 at 1 mg/disc after 24 hrs by disc diffusion method; assay type: functional
Klebsiella aerogenes [22] = assay: Antibacterial activity against Enterobacter aerogenes MTCC 111 at 1 mg/disc after 24 hrs by disc diffusion method; assay type: functional
[23] = Salmonella enterica, MTCC 1251, 24 h
[24] = Salmonella enterica subsp. enterica serovar Typhimurium

SMILES	inhibition zone (IZ) (Proteus vulgaris [1]) [mm]	inhibition zone (IZ) (Staphylococcus aureus [2]) [mm]	Activity (A549 [3]) [%]	inhibition zone (IZ) (Staphylococcus aureus [4]) [mm]	MIC (Shigella flexneri [5]) [µg/mL]	Activity (A549 [8]) [%]	inhibition zone (IZ) (Micrococcus luteus [9]) [mm]	MIC (Klebsiella pneumoniae [10]) [µg/mL]	MIC (Klebsiella aerogenes [11]; MTCC 111, 24 h) [µg/mL]	MIC (Candida albicans [12])	MIC (Micrococcus luteus [13]) [µg/mL]	MIC (Salmonella typhimurium [14]; [23]) [µg/mL]	MIC (Staphylococcus aureus [15]) [µg/mL]	MIC (Proteus vulgaris [16]; MTCC 1771, 24 h) [µg/mL]	inhibition zone (IZ) (Salmonella typhimurium [17]) [mm]	Activity (A549 [18]) [%]	MIC (Staphylococcus aureus [19]; MTCC 96, 24 h) [µg/mL]	inhibition zone (IZ) (Klebsiella pneumoniae [20]) [mm]	inhibition zone (IZ) (Shigella flexneri [21]) [mm]	inhibition zone (IZ) (Klebsiella aerogenes [22]) [mm]	other results
CN1C(=O)[C@@]2(c3cc(Br)ccc31)N(C)C[C@](C#N)(C(=O)c1c[nH]c3ccccc13)[C@]21C(=O)Nc2ccccc21	9	9	10.92	8	125 (≈ 215 µM)	0.87	11	500 (≈ 861 µM)	125 (≈ 215 µM)	inactive	125 (≈ 215 µM)	500 (≈ 861 µM)	500 (≈ 861 µM)	500 (≈ 861 µM)	9	2.07	500 (≈ 861 µM)	8	11	10	inhibition (Candida albicans [6]): inactive; inhibition [7]: inactive
Cc1ccc2c(c1)[C@]1(C(=O)N2)N(C)C[C@](C#N)(C(=O)c2c[nH]c3ccccc23)[C@]12C(=O)Nc1ccccc12	10		62.96	10	125 (≈ 249 µM)	31.6	10	500 (≈ 997 µM)	500 (≈ 997 µM)	inactive	500 (≈ 997 µM)	500 (≈ 997 µM)	500 (≈ 997 µM)	500 (≈ 997 µM)	10	56.34		9	11	9	inhibition (Staphylococcus aureus [2]): inactive; inhibition (Candida albicans [6]): inactive; inhibition [7]: inactive; MIC (Staphylococcus aureus [19]): inactive
CCN1C(=O)[C@@]2(c3ccccc31)N(C)C[C@](C#N)(C(=O)c1c[nH]c3ccccc13)[C@]21C(=O)Nc2ccccc21	9	9	26.58	11	500 (≈ 970 µM)	7.16	11	500 (≈ 970 µM)	500 (≈ 970 µM)	500 µg/mL (≈ 970 µM)	500 (≈ 970 µM)	500 (≈ 970 µM)	500 (≈ 970 µM)	500 (≈ 970 µM)	7	18.61	500 (≈ 970 µM)	10	9	8	inhibition zone (IZ) (Candida albicans [6]): 8 mm; inhibition [7]: inactive
CN1C(=O)[C@@]2(c3ccccc31)N(C)C[C@](C#N)(C(=O)c1c[nH]c3ccccc13)[C@]21C(=O)Nc2ccccc21	14	13	13.99	11	250 (≈ 498 µM)	1.71	11	125 (≈ 249 µM)		250 µg/mL (≈ 498 µM)	250 (≈ 498 µM)	500 (≈ 997 µM)	500 (≈ 997 µM)	125 (≈ 249 µM)	10	7.22	250 (≈ 498 µM)	13	12	8	inhibition zone (IZ) (Candida albicans [6]): 12 mm; inhibition [7]: inactive; MIC (Klebsiella aerogenes [11]): inactive
Cc1ccc2c(c1)[C@]1(C(=O)N2C)N(C)C[C@](C#N)(C(=O)c2c[nH]c3ccccc23)[C@]12C(=O)Nc1ccccc12	12	9	15.12	8	125 (≈ 242 µM)	0.66	10	125 (≈ 242 µM)	125 (≈ 242 µM)	500 µg/mL (≈ 970 µM)	500 (≈ 970 µM)	500 (≈ 970 µM)	500 (≈ 970 µM)	125 (≈ 242 µM)	9	10.73	500 (≈ 970 µM)	11	11	13	inhibition zone (IZ) (Candida albicans [6]): 8 mm; inhibition [7]: inactive
CN1C[C@](C#N)(C(=O)c2c[nH]c3ccccc23)[C@]2(C(=O)Nc3ccccc32)[C@@]12C(=O)N(Cc1ccccc1)c1ccccc12	9	11	23.95	9	500 (≈ 866 µM)	9.26	9	125 (≈ 216 µM)	500 (≈ 866 µM)	500 µg/mL (≈ 866 µM)	500 (≈ 866 µM)		500 (≈ 866 µM)	500 (≈ 866 µM)		16.03	125 (≈ 216 µM)	11	7	10	inhibition zone (IZ) (Candida albicans [6]): 9 mm; inhibition zone (IZ) [7]: 10 mm; MIC (Salmonella typhimurium [14]; [24]): inactive; inhibition (Salmonella typhimurium [17]; [24]): inactive
CN1C(=O)[C@@]2(c3cc(I)ccc31)N(C)C[C@](C#N)(C(=O)c1c[nH]c3ccccc13)[C@]21C(=O)Nc2ccccc21	9	11	26.85	12	500 (≈ 797 µM)	4.34	11	500 (≈ 797 µM)	125 (≈ 199 µM)	500 µg/mL (≈ 797 µM)	125 (≈ 199 µM)	500 (≈ 797 µM)	125 (≈ 199 µM)	500 (≈ 797 µM)	10	12.66	125 (≈ 199 µM)	9	10	13	inhibition zone (IZ) (Candida albicans [6]): 9 mm; inhibition zone (IZ) [7]: 11 mm
CN[C@@H]1[C@H](O[C@H]2[C@H](O[C@H]3[C@H](O)[C@@H](O)[C@H](N=C(N)N)[C@@H](O)[C@@H]3N=C(N)N)O[C@@H](C)[C@]2(O)C=O)O[C@@H](CO)[C@H](O)[C@H]1O [STREPTOMYCIN]	30	14		30	6.25 (≈ 10.7 µM)		26	6.25 (≈ 10.7 µM)	25 (≈ 43 µM)		6.25 (≈ 10.7 µM)	30 (≈ 51.6 µM)	6.25 (≈ 10.7 µM)		18		6.25 (≈ 10.7 µM)	20	30	22	MIC (Proteus vulgaris [16]): inactive
